Source: patent US20080146555A1, “Uses of Kinase Inhibitors and Compositions Thereof” (GPC Biotech, Inc, priority 2004, published 2008)

System: HCT-116 cells
Assay: Calcein AM viability assay, HCT-116
Assay type: cell-based
Conditions: Homo sapiens, HCT-116, non-protein adjusted, Table 4; read-out: HCT-116 viability IC50
Description: The potency of the subject kinase inhibitors, as measured by loss of cellular viability, was determined with the Calcein AM assay (Molecular Probes). Calcein AM is a substrate of intracellular esterases, which is cleaved only in viable cells to generate a fluorescent product that can be quantified with a fluorescent plate reader. The fluorescent signal is proportional to the number of viable cells, and thus loss of signal in response to the exposure of cells to the subject kinase inhibitors correlates with a loss of viability. This assay not only distinguishes cell cycle arrest, in which cells may still by viable, from loss of viability, and is thus well suited for the evaluation of the subject kinase inhibitors. A compound that is a potent cytotoxic agent may cause significant loss of cell viability in such an assay.
Cellular IC50's were determined in the human colorectal carcinoma cell line, HCT-116, and the normal human fibroblast, IMR90. Protein adjusted IC50's were also determined in HCT-116. Results of such viability assays are presented in Table 2 (HCT-116 (viability/protein adjusted) and IMR-90). IC50's (μM, non-protein adjusted) for the viability assay against HCT-116 cells are shown for further compounds of the invention in Table 4.
HCT-116 or IMR90 cells were recovered from sub-confluent plates by trypsinization and 1,000 or 4,000 cells, respectively, were plated in 24-well dishes and incubated overnight at 37° C., 5% CO2. HCT-116 cells were cultured in RPMI-1640, 10% FCS, and IMR90 cells were cultured in Minimum Essential Medium-alpha, 10% FCS. After overnight incubation to allow adherence, the media was aspirated from each well and replaced with media containing a test compound at a concentration from 0 to 250 nM, spanning a total of 7 doses. The plates were returned to the incubator and cultured for an additional 72 hours (3 days). […] After 72-hours incubation with the test compound, the cells were washed twice with 1×PBS, taking special care to remove all residual buffer.
A 5 μM Calcein AM solution was prepared by dissolving a 50 μg aliquot of Calcein (Molecular Probes catalog #C3100) in 50 μl DMSO. After the Calcein had completely dissolved (10 minutes at room temperature), it was diluted into 10 ml PBS. Calcein/PBS (0.5 ml) was added to each well. The plates were incubated for 75 minutes at 37° C. (protected from light) and the fluorescent signal was read on a fluorescent plate reader (excitation 485/20 and emission 530/25).

Compound	IC50 [nM]
Cc1noc(COc2ccc(-c3[nH]nc4c3C(=O)c3c(NC(=O)NN5CCOCC5)cccc3-4)cc2)n1 [Compound A35]	< 100
CC(C)N1CCN(CCCOc2ccc(-c3[nH]nc4c3C(=O)c3c(NC(=O)NN5CCOCC5)cccc3-4)cc2)CC1 [Compound A20]	< 100
Cc1noc(COc2ccc(-c3[nH]nc4c3C(=O)c3c(NC(=O)NN5CCN(C)CC5)cccc3-4)cc2)n1 [Compound A45]	< 10
O=C(Nc1cccc2c1C(=O)c1c(-c3ccc(OCC(=O)N4CCN(c5ccccn5)CC4)cc3)n[nH]c1-2)NN1CCOCC1 [Compound A81]	< 100
CCN1CCN(C(=O)COc2ccc(-c3n[nH]c4c3C(=O)c3c(NC(=O)NN5CCOCC5)cccc3-4)cc2)CC1 [Compound A78]	< 10
O=C(Nc1cccc2c1C(=O)c1c(-c3ccc(OCC(=O)N4CCN(c5ccccc5)CC4)cc3)n[nH]c1-2)NN1CCOCC1 [Compound A80]	< 100
O=C(Nc1cccc2c1C(=O)c1c(-c3ccc(CN4CCOCC4)cc3)n[nH]c1-2)NN1CCOCC1 [Compound A47]	< 10
O=C(Nc1cccc2c1C(=O)c1c(-c3ccc(OCCN4CCOCC4)cc3Cl)n[nH]c1-2)NN1CCOCC1 [Compound A28]	< 100
CC(C)OC(=O)CN1CCN(NC(=O)Nc2cccc3c2C(=O)c2c-3n[nH]c2-c2ccc(OCCN3CCCC3)cc2)CC1 [Compound A40]	< 100
Cc1cc(OCCN2CCOCC2)ccc1-c1[nH]nc2c1C(=O)c1c(NC(=O)NN3CCN(C)CC3)cccc1-2 [Compound A7]	< 100
CN1CCN(NC(=O)Nc2cccc3c2C(=O)c2c-3n[nH]c2-c2ccc(OCC(=O)N3CCCC3)cc2)CC1 [Compound A44]	< 100
Cc1cc(OCCCN2CCN(C(C)C)CC2)ccc1-c1[nH]nc2c1C(=O)c1c(NC(=O)NN3CCOCC3)cccc1-2 [Compound A21]	< 100
O=C(Nc1cccc2c1C(=O)c1c-2n[nH]c1-c1ccc(O)c(CN2CCOCC2)c1)NN1CCOCC1 [Compound A10]	< 100
Cc1cc(-c2[nH]nc3c2C(=O)c2c(NC(=O)NN4CCOCC4)cccc2-3)ccc1OCCN1CCCC1 [Compound A25]	< 10
CN1CCN(Cc2ccc(-c3n[nH]c4c3C(=O)c3c(NC(=O)NN5CCOCC5)cccc3-4)cc2)CC1 [Compound A49]	< 100
CC(C)N1CCN(NC(=O)Nc2cccc3c2C(=O)c2c-3n[nH]c2-c2ccc(OCCN3CCCC3)cc2)CC1 [Compound A23]	< 100
O=C(Nc1cccc2c1C(=O)c1c(-c3ccc(OCc4nnn[nH]4)cc3)n[nH]c1-2)NN1CCOCC1 [Compound A74]	> 250

Compound	IC50 [nM]
Cc1cc(-c2[nH]nc3c2C(=O)c2c(NC(=O)NN4CCN(C)CC4)cccc2-3)ccc1OCCN1CCN(C(C)C)CC1 [Compound A18]	< 100
CC(C)N1CCN(CCOc2ccc(-c3n[nH]c4c3C(=O)c3c(NC(=O)NN5CCOCC5)cccc3-4)c(F)c2)CC1 [Compound A16]	< 100
O=C(Nc1cccc2c1C(=O)c1c-2n[nH]c1-c1ccc(OCC(=O)N2CCOCC2)cc1)NN1CCOCC1 [Compound A36]	< 10
CN1CCN(C(=O)COc2ccc(-c3n[nH]c4c3C(=O)c3c(NC(=O)NN5CCOCC5)cccc3-4)cc2)CC1 [Compound A77]	< 100
CCOC(=O)CN1CCN(NC(=O)Nc2cccc3c2C(=O)c2c-3n[nH]c2-c2ccc(OCCN3CCCC3)cc2)CC1 [Compound A26]	< 10
CN1CCN(NC(=O)Nc2cccc3c2C(=O)c2c(-c4ccc(OCCN5CCCC5)cc4F)n[nH]c2-3)CC1 [Compound A12]	< 100
CN(C)C(=O)CN1CCN(NC(=O)Nc2cccc3c2C(=O)c2c-3n[nH]c2-c2ccc(OCCN3CCCC3)cc2)CC1 [Compound A41]	< 100
O=C(O)COc1ccc(-c2n[nH]c3c2C(=O)c2c(NC(=O)NN4CCOCC4)cccc2-3)cc1 [Compound A68]	< 1000
O=C(Nc1cccc2c1C(=O)c1c(-c3ccc(CN4CCN(c5ccccn5)CC4)cc3)n[nH]c1-2)NN1CCOCC1 [Compound A82]	< 100
COc1cc(-c2[nH]nc3c2C(=O)c2c(NC(=O)NN4CCOCC4)cccc2-3)ccc1OCCN1CCCC1 [Compound A31]	< 100
O=C(Nc1cccc2c1C(=O)c1c(-c3ccc(OCCN4CCOCC4)c(F)c3)n[nH]c1-2)NN1CCOCC1 [Compound A27]	< 100
Cc1cc(OCCN2CCCCC2)ccc1-c1[nH]nc2c1C(=O)c1c(NC(=O)NN3CCN(C)CC3)cccc1-2 [Compound A8]	< 100
CN1CCN(CCOc2ccc(-c3n[nH]c4c3C(=O)c3c(NC(=O)NN5CCN(C)CC5)cccc3-4)c(F)c2)CC1 [Compound A13]	< 10
O=C(Nc1cccc2c1C(=O)c1c-2n[nH]c1-c1ccc(OCCN2CCOCC2)cc1)NN1CCOCC1 [Compound A3]	< 100
Cc1cc(OCCN2CCCC2)ccc1-c1[nH]nc2c1C(=O)c1c(NC(=O)NN3CCOCC3)cccc1-2 [Compound A29]	< 100
Cc1cc(OCCn2cccn2)ccc1-c1[nH]nc2c1C(=O)c1c(NC(=O)NN3CCN(C)CC3)cccc1-2 [Compound A11]	< 100
CN1CCN(NC(=O)Nc2cccc3c2C(=O)c2c(-c4ccc(OCCN5CCCC5)c(F)c4)n[nH]c2-3)CC1 [Compound A14]	< 100

Continued, values first:

IC50 [nM]	Compound
< 10	O=C(Nc1cccc2c1C(=O)c1c-2n[nH]c1-c1ccc(CN2CCN(c3ccncc3)CC2)cc1)NN1CCOCC1 [Compound B14]
< 100	COCCN1CCN(C(=O)COc2ccc(-c3[nH]nc4c3C(=O)c3c(NC(=O)NN5CCOCC5)cccc3-4)cc2)CC1 [Compound C1]
< 100	O=C(Nc1cccc2c1C(=O)c1c(-c3ccc(CNCCOCCO)cc3)n[nH]c1-2)NN1CCOCC1 [Compound B4]
< 100	O=C(Nc1cccc2c1C(=O)c1c(-c3ccc(CN4CCN(CCO)CC4)cc3)n[nH]c1-2)NN1CCOCC1 [Compound B3]
< 100	O=C(Nc1cccc2c1C(=O)c1c(-c3ccc(CN4CCC(O)CC4)cc3)n[nH]c1-2)NN1CCOCC1 [Compound B5]
< 100	O=C(Nc1cccc2c1C(=O)c1c(-c3ccc(CNCc4cccnc4)cc3)n[nH]c1-2)NN1CCOCC1 [Compound B12]
< 10	O=C(Nc1cccc2c1C(=O)c1c(-c3ccc(CNCc4ccccn4)cc3)n[nH]c1-2)NN1CCOCC1 [Compound B13]
< 1000	O=C(Nc1cccc2c1C(=O)c1c(-c3ccc(CNCC(O)CO)cc3)n[nH]c1-2)NN1CCOCC1 (stereo not shown) [Compound B11]
< 1000	O=C(Nc1cccc2c1C(=O)c1c(-c3ccc(CN4CCN(c5cccc(C(F)(F)F)c5)CC4)cc3)n[nH]c1-2)NN1CCOCC1 [Compound B7]
< 10	CC(C)N1CCN(Cc2ccc(-c3[nH]nc4c3C(=O)c3c(NC(=O)NN5CCOCC5)cccc3-4)cc2)CC1 [Compound B17]
< 100	CCOC(=O)C1CCN(Cc2ccc(-c3n[nH]c4c3C(=O)c3c(NC(=O)NN5CCOCC5)cccc3-4)cc2)CC1 [Compound B9]
< 1000	O=C(Nc1cccc2c1C(=O)c1c(-c3ccc(CNC(CO)CO)cc3)n[nH]c1-2)NN1CCOCC1 [Compound B1]
< 100	O=C(Nc1cccc2c1C(=O)c1c(-c3ccc(CNCCO)cc3)n[nH]c1-2)NN1CCOCC1 [Compound B10]
< 250	O=C(Nc1cccc2c1C(=O)c1c-2n[nH]c1-c1ccc(OCC(=O)N2CCNCC2)cc1)NN1CCOCC1 [Compound C5]
< 10	O=C(Nc1cccc2c1C(=O)c1c-2n[nH]c1-c1ccc(CN2CCN(c3ncccn3)CC2)cc1)NN1CCOCC1 [Compound B15]
